Reference: patent publication US20060069043A1, “Chiral separation, characterization and biological action of optically active isomers of digoxin” (priority 2004, published 2006)
Read-outs that look alike come from different tables or passages of the source.

What was measured:
[1] = test system: serum protein; assay: In vitro drug studies: ability to induce changes in digitoxin serum protein binding; assay type: in vitro ADME; details: procainamide 5 mg/ml, phenytoin 50 mg/ml, heparin 5 IU/ml, rifampicillin 4.5 μg/ml
Method: The ability to induce changes in digitoxin serum protein binding was tested for the following drugs: procainamide (5 mg/ml), phenytoin (50 mg/ml), heparin (5 IU/ml), and rifampicillin (4.5 μg/ml). […] Identical procedures will be used for digoxin isolates.

[2] = test system: serum protein; assay: Free fraction by centrifugation; assay type: in vitro ADME; details: for fraction unbound at 60 min: centrifugation time 60 minutes
Method: Free fraction of digitoxin increased with centrifugation time from 18% at 10 minutes to 37% at 80 minutes (500 g) without reaching plateau levels.

[3] = test system: serum protein; assay: Serum protein binding by equilibrium dialysis; assay type: in vitro ADME, patients; details: human, read-out: digitoxin binding (protein binding), mean (converted)
Method: Equilibrium was obtained after 16 hours when titrated glycoside was added to serum. When added to the buffer phase, equilibrium was reached after 60 hours. Distribution of digitoxin, for example, in buffer-buffer control, was around 50% (49.4 to 50.6%). Absorption of ^3H-labeled glycoside to the dialysis membrane was 0.2% of the added ^3H-glycoside. Digitoxin protein binding was dependent on albumin content. […] No trace of protein was found when adding concentrated perchloric acid to the buffer phase. Counting efficacy was the same whether serum or buffer aliquots were added to the counting fluid. The counting error for buffer samples containing the smallest amount of radioactivity was 1% to 1.5%. Chamber equilibrium dialysis gave similar results. […] No significant change in digitoxin binding was found when the sera from 9 patients were dialyzed at 20° C. (mean, 96.7%) and at 37° C. (mean, 96.9%). Digoxin isolates will be used under similar conditions.

[4] = test system: guinea pig; assay: Effect on PR interval (AV node conduction) and cardiac contractibility in anesthetized open-chest guinea pig; assay type: in vivo; details: pentobarbital anesthesia, IV infusion at 6 μg/kg/min continuously
Method: The guinea pig or rat is anesthetized with pentobarbital at 40 mg/kg IP, then connected to an EKG recorder. The animal is then placed on a small animal respirator. Aseptic surgical instruments are soaked in ethanol and then flamed. An incision is made in the chest wall to open the chest. A Walton Brody stain gauge arch is sutured to the right ventricle to measure contractile changes. The refractoriness of the AV node is determined by measuring the PR interval on the surface EKG. Graphs can be created from the data displaying the dose related change in the PR interval to the dose related contractile augmentation. Digoxin or chiral isolates are infused through the jugular vein at concentrations (from 0.1 μM and then to 10 μM) at a constant rate by infusion pump, to determine the differential effects on the AV node and cardiac contractibility. The infusions are continued to a 50% level augmentation in contractibility or the development of ventricular tachycardia. To maintain a consistent level of anesthesia, pentobarbital 20 mg/kg IP or 10 mg/kg IV for more immediate action at 30-minute intervals may be administered.
The effect of digoxin and one of the two chiral isomers was evaluated in the guinea pig. Guinea pigs were anesthetized with pentobarbital. […] An EKG was continuously recorded. Conduction through the AV node was determined by measuring the PR interval on the surface EKG. […]

[5] = test system: gram-negative and gram-positive bacteria; details: against both gram-negative and gram-positive bacteria; cited from earlier work

Compound: heparin
- changes in the serum protein binding of digitoxin [1]: None of these induced significant changes

Compound: CCN(CC)CCNC(=O)c1ccc(N)cc1 [procainamide]
- changes in the serum protein binding of digitoxin [1]: None of these induced significant changes

Compound: rifampicillin
- changes in the serum protein binding of digitoxin [1]: None of these induced significant changes

Compound: C[C@H]1O[C@@H](O[C@H]2[C@@H](O)C[C@H](O[C@H]3[C@@H](O)C[C@H](O[C@H]4CC[C@@]5(C)[C@H](CC[C@@H]6[C@@H]5CC[C@]5(C)[C@@H](C7=CC(=O)OC7)CC[C@]65O)C4)O[C@@H]3C)O[C@@H]2C)C[C@H](O)[C@@H]1O [digitoxin]
- fraction unbound at 10 min ([2]; centrifugation time 10 minutes, 500 g): 0.18
- fraction unbound at 60 min ([2]; 135 g): 0.059
- fraction unbound at 60 min ([2]; 560 g): 0.157
- fraction unbound at 80 min ([2]; centrifugation time 80 minutes, 500 g): 0.37
- fraction unbound ([3]; sera from 9 patients dialyzed at 20° C.): 0.033
- fraction unbound ([3]; sera from 9 patients dialyzed at 37° C.): 0.031

Compound: CC1O[C@@H](O[C@H]2C(O)C[C@H](O[C@H]3C(O)C[C@H](OC4CC[C@@]5(C)[C@H](CC[C@@H]6[C@@H]5C[C@@H](O)[C@]5(C)[C@@H](C7=CC(=O)OC7)CC[C@]65O)C4)OC3C)OC2C)CC(O)[C@@H]1O (stereo partly shown) [Digoxin]
- PR interval on the surface EKG (conduction through the AV node) [4]: progressive increase in PR interval
- cardiac contractibility as measured by the strain-gauge arch [4]: increase in cardiac contractibility

Compound: CC1COc2c(N3CCN(C)CC3)c(F)cc3c(=O)c(C(=O)O)cn1c23 (single isomer, unassigned; (-)) [(−)-Ofloxacin]
- activity relative to the racemate [5]: 8-128 times

Compound: O=C1NC(=O)C(c2ccccc2)(c2ccccc2)N1 [phenytoin]
- changes in the serum protein binding of digitoxin [1]: None of these induced significant changes
